Results as given in patent US20040001822A1, “Y1-isolated molecules comprising epitopes containing sulfated moieties, antibodies to such epitopes, and uses thereof” (priority 2000, published 2004).
Starred links: 1 amine or outer side, 2 acyl side, 3 side chain; linkers in the order of their positions; H or OH if unused. Primed or numbered codes have the meaning given here. No end group written: not given here. *: point of attachment. SO3H = sulfated tyrosine (Y*), O=S(=O)(O)[*:2]; SO3H″ = O=S(=O)(O)*

Tests used:
[1] = test system: KG-1 cells; assay: AML KG-1 model in NOD/SCID mice; format: in vivo; conditions: for percentage of KG-1 cells in bone marrow compared to untreated group 2: Doxorubicin 0.1 mg/kg 3 times per week, CONY1-Doxorubicin 75 μg/mouse 3 times per week, Mylotarg 0.2 mg/kg 1 time per week
Experimental: The in vivo mouse model for human AML uses SCID/NOD mice (Jackson Laboratories) inoculated with KG-1 cells derived from a human AML cell line.
In a first experiment, NOD/SCID mice were pretreated with 100 mg/kg CYTOXAN®. Four days post CYTOXAN® injection, KG-1 cells were injected intravenously into the tail vein of six groups of mice. (Table N, Groups 2 and 5-9). One group of mice (Table N, Group 1) was injected with PBS alone (control).
Beginning 19 days post KG-1 injection mice were treated with: CONY1, Doxorubicin, CONY1-Doxorubicin conjugate, or Mylotarg®. (Mylotarg® is a monoclonal antibody (anti CD33) conjugated chemically to calcheamicin recently approved by the FDA for treatment of AML patients age 60 and over in a first relapse.) Mice were treated once or three times per week for three weeks. One group (group 2) of KG-1 inoculated mice were left untreated. (Table N). Two other groups of mice (groups 3 and 4) were injected with KG-1 cells that were previously incubated with CONY1 or 181-scFv (a negative, non-specific control antibody) in serum free RPMI containing 1% BSA at 4° C. for 1 h. The antibodies were used at a concentration of 0.25 mg scFv/l 10^8 cells (75 μg/mouse). Before injection into the mice the preincubated KG-1 cells were washed and resuspended in RPMI. The KG-1 cells in RPMI were inoculated into mice at a concentration of 75 μg scFv/0.2 ml RPMI per mouse. Group 3 mice were inoculated with KG-1+CONY1, and group4 mice were inoculated with KG-1+181-scFv. (Table N). This treatment (group 3 and 4) was carried out one day after the inoculation of groups 1-2 and 5-9, i.e., at five days after CYTOXAN injection.
Mice were sacrificed from 60 to 65 days post cell injection. Bone marrow samples were analyzed by flow cytometry using mouse anti human CD34-FITC (IQP 144F) (or anti CD44-FITC (MCA89F, Serotec)) and Y1-Biotin/SAV-PE. Mouse IgG1-FITC (IQP 191-F) was used as an isotype control, and mouse IgG2a-FITC (MCA929F, Serotec) was used as a negative control. Flow cytometry was performed using FACSCalibur system and CellQwest software, Becton Dickinson.
An additional experiment was performed in which SCID-NOD mice were i.v. injected with 3×10^4 MOLT-4 cells/mouse 5 days post treatment with cyclophosphamide. Anti-cancer agents or PBS were injected IV three times/week, from day 14 onward. On day 60, blood was drawn, then the animals were sacrificed. Bone marrow was extracted and analyzed by FACS analysis using a commercially available antiCD44 antibody for the detection of MOLT-4 cells in the mice bone marrow cell population.

[2] = test system: Y1 Binding to Glycocalicin; assay: ELISA: effect of synthetic GPIbα peptides on Y1 binding to purified glycocalicin; design: species or system human; conditions: 0.25 μg/well Y1
Sequence of Y1 Binding to Glycocalicin (as listed by the source): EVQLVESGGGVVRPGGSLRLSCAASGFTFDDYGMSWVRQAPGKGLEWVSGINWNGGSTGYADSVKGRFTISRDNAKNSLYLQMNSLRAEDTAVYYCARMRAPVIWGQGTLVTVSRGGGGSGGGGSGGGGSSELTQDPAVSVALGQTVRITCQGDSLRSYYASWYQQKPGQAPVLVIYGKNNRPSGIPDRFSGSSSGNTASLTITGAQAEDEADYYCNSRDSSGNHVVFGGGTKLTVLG
Experimental: ELISA assays were developed to evaluate the effect of the GPIb derived synthetic peptides on the binding of Y1 to purified glycocalicin. In addition, FACS analysis using washed platelets was carried out. To evaluate the importance of sulfated tyrosine within the Y1 binding site of GPIb, a competitive binding FACS analysis was used. Y1-scFv at a concentration of 1 μg was preincubated with different peptides at concentrations of 2.5 and 200 μM. After a preincubation for 30 minutes at room temperature the mixture was added to a tube containing ˜10^7 washed platelets and the binding of Y1 to the washed platelets was assessed using polyclonal rabbit anti-scFv-PE. The inhibitory effect of the peptides compared to control binding (Y1 alone) was evaluated by measuring the residual binding of Y1 to washed platelets. The peptides and the results are described in Table 1 and are similar to results that were observed using the same peptides in an ELISA assay (Table B). In both assays, a control level of Y1 binding was determined, as follows. A polystyrene microtiter maxisorb plate was coated with (a) purified glycocalicin or (b) washed platelets. […] The plate was then incubated with rabbit anti-scFv followed by addition of anti rabbit-HRP (horse radish peroxidase) and HRP substrate. The level of anti rabbit-HRP binding was measured by the intensity of the color produced, and the level of anti rabbit-HRP binding correlates with the level of binding of anti Y1-scFv and the level of binding of Y1. The optical density was measured at A405. Each sample was assayed in duplicate, and the average was calculated.
The effect of synthetic GPIbα peptides on Y1 binding to purified glycocalicin was evaluated by mixing varying concentrations of the peptides with a constant amount of Y1. After a preincubation for 30 minutes at room temperature, the mixture was added to a polystyrene microtiter maxisorb plate coated with purified glycocalicin, as described for evaluation of Y1 binding in the absence of peptides. The inhibitory effect of the peptides was evaluated by measuring the residual binding of Y1 to glycocalicin using rabbit anti Y1 scFv and anti rabbit-HRP antibodies, as described for evaluation of Y1 binding in the absence of peptides. This study was performed with four peptides representing various subsets of the sequence 268 to 285 and a control peptide. Each peptide was tested at different concentrations: 200 μM, 25 μM, 2.5 μM, and 0.5 μM.

[3] = test system: washed platelets; assay: Competitive FACS: effect of synthetic GPIbα peptides on Y1 binding to washed platelets; design: species or system human
Experimental: ELISA assays were developed to evaluate the effect of the GPIb derived synthetic peptides on the binding of Y1 to purified glycocalicin. In addition, FACS analysis using washed platelets was carried out. To evaluate the importance of sulfated tyrosine within the Y1 binding site of GPIb, a competitive binding FACS analysis was used. Y1-scFv at a concentration of 1 μg was preincubated with different peptides at concentrations of 2.5 and 200 μM. After a preincubation for 30 minutes at room temperature the mixture was added to a tube containing ˜10^7 washed platelets and the binding of Y1 to the washed platelets was assessed using polyclonal rabbit anti-scFv-PE. The inhibitory effect of the peptides compared to control binding (Y1 alone) was evaluated by measuring the residual binding of Y1 to washed platelets. The peptides and the results are described in Table 1 and are similar to results that were observed using the same peptides in an ELISA assay (Table B). In both assays, a control level of Y1 binding was determined, as follows. A polystyrene microtiter maxisorb plate was coated with (a) purified glycocalicin or (b) washed platelets. After extensive washing, 0.5 μg/well of Y1 was added. The plate was then incubated with rabbit anti-scFv followed by addition of anti rabbit-HRP (horse radish peroxidase) and HRP substrate. The level of anti rabbit-HRP binding was measured by the intensity of the color produced, and the level of anti rabbit-HRP binding correlates with the level of binding of anti Y1-scFv and the level of binding of Y1. The optical density was measured at A405. Each sample was assayed in duplicate, and the average was calculated.

[4] = test system: scFv Y1 binding to glycocalicin; assay: Competitive binding ELISA of sulfated peptides to Y1; design: species or system human; conditions: for Inhibition of Y1 binding to glycocalicin by peptide: peptide preincubated with scFv Y1 at 1, 10 and 100 μM
Sequence of scFv Y1 binding to glycocalicin (as listed by the source): as above
Experimental: A competitive binding ELISA assay was used to assess the importance of position of sulfated tyrosines to the binding of peptides to Y1.
Glycocalicin was immobilized on a Maxisorb plate. scFv Y1 was preincubated with a peptide of interest for 10 minutes at three different concentrations (1, 10 and 100 μM) in order to observe a dose response. (Table 12). After preincubation, the mixture (Y1+peptide) was added to the plate, and binding of scFv Y1 was assessed using polyclonal rabbit anti-VL, which recognizes the VL chain of scFv Y1, followed by anti-rabbit-HRP. In mixtures in which the peptide bound to scFv Y1, a decrease in the binding of scFv Y1 to glycocalicin compared to control binding was observed.

Row | Compound | Residual Binding of Y1 (% of baseline) ([2]; peptide 0.5 μM) | Residual Binding of Y1 (% of baseline) ([2]; peptide 2.5 μM) | Residual Binding of Y1 (% of baseline) ([2]; peptide 25 μM) | Residual Binding of Y1 (% of baseline) (Geo Mean) ([3]; peptide 2.5 μM) | Residual Binding of Y1 (% of baseline) (Geo Mean) ([3]; peptide 200 μM) | Inhibition of Y1 binding to glycocalicin by peptide [4] | other results
1 | COc1cccc2c1C(=O)c1c(O)c3c(c(O)c1C2=O)C[C@@](O)(C(=O)CO)C[C@@H]3O[C@H]1C[C@H](N)[C@H](O)[C@H](C)O1 [Doxorubicin] |  |  |  |  |  |  | reduction in the number of tumor cells in the bone marrow ([1]; additional experiment, day 60): 50%; mice that died within three weeks after treatment initiation ([1]; first experiment, group 7, 5 mg/kg, 1 time per week): Nine out of 10; percentage of KG-1 cells in bone marrow compared to untreated group 2 ([1]; first experiment): statistically significant (p<0.05) lower percentage
2 | GDEGDTDLY*DY*Y*P (GDEGDTDLYDYYP; not fully specified (residues 9, 11, 12); printed as GDEGDTDLY*DY*Y*P) [P-3-S, residues 268-280 of GPIbα] | 80 % of baseline | 67 % of baseline | 21 % of baseline | 82 % of baseline | 26 % of baseline |  | 
3 | GDEGDTDLY*DY*Y*PEEDTE (GDEGDTDLYDYYPEEDTE; not fully specified (residues 9, 11, 12); printed as GDEGDTDLY*DY*Y*PEEDTE) [P-1-S, residues 268-285 of GPIbα, Y* sulfated tyrosine] | 89 % of baseline | 62 % of baseline | 25 % of baseline | 41 % of baseline | 5 % of baseline | did inhibit the binding | Residual Binding of Y1 (% of baseline) ([2]; peptide 200 μM): 0 % of baseline
4 | GDEGDTDLYDYYPEEDTE [P-1, residues 268-285 of GPIbα, non-sulfated] | 88 % of baseline | 94 % of baseline | 71 % of baseline |  | 87 % of baseline |  | Residual Binding of Y1 (% of baseline) ([2]; peptide 200 μM): 61 % of baseline
5 | Mylotarg: monoclonal antibody (anti CD33) conjugated chemically to calcheamicin |  |  |  |  |  |  | prevalence of cancer cells in the bone marrow ([1]; additional experiment, day 60, CONY1 scFv 75 μg/mouse three times/week, Mylotarg 7 μg/mouse once a week): completely inhibited; percentage of KG-1 cells in bone marrow compared to untreated group 2 ([1]; first experiment): free of KG 1 cells
6 | QATEY*EY*LDYDFLPETE (QATEY(SO3H)EY(SO3H)LDYDFLPETE) [P-Y* Y*Y, PSGL-1 n-terminus peptide, sulfated] |  |  |  |  |  | inhibited Y1 binding to glycocalicin | 
7 | QATEY*EYLDY*DFLPETE (QATEY(SO3H)EYLDY(SO3H)DFLPETE) [P-Y*Y Y*, PSGL-1 n-terminus peptide, sulfated] |  |  |  |  |  | inhibited Y1 binding to glycocalicin | 
8 | QATEY*EYLDYDFLPETE (QATEY(SO3H)EYLDYDFLPETE) [P-Y*YY, PSGL-1 n-terminus peptide, sulfated] |  |  |  |  |  | inhibited Y1 binding to glycocalicin | peptide concentration at which binding is inhibited efficiently ([4]; competitive ELISA, scFv Y1 on glycocalicin): 100 µM
9 | QATEYEY*LDY*DFLPETE (QATEYEY(SO3H″)LDY(SO3H″)DFLPETE) [P-YY* Y*, PSGL-1 n-terminus peptide, sulfated] |  |  |  |  |  | best inhibitors | 
10 | QATEYEY*LDYDFLPETE (QATEYEY(SO3H)LDYDFLPETE) [P-YY*Y, PSGL-1 n-terminus peptide, sulfated] |  |  |  |  |  | inhibited Y1 binding to glycocalicin | 
11 | REEGRQHFFLLEGRSSYS [negative control peptide, reference compound] |  | 100 % of baseline | 89 % of baseline | 96 % of baseline |  |  | Residual Binding of Y1 (% of baseline) ([2]; peptide 200 μM): 85 % of baseline
12 | TDLY*DY*Y*PEEDTE (TDLYDYYPEEDTE; not fully specified (residues 4, 6, 7); printed as TDLY*DY*Y*PEEDTE) [P-2-S, residues 273-285 of GPIbα] | 78 % of baseline | 52 % of baseline | 15 % of baseline | 61 % of baseline | 7 % of baseline |  | 
